Patent US9920061B2, “Imidazo[1,5-A]pyrimidinyl carboxamide compounds and their use in the treatment of medical disorders” (Lysosomal Therapeutics Inc., priority 2016, dated 2018)
Values after ≈ are worked out from the molar mass of the structure shown. Like-named read-outs stand apart in the source and are kept apart here.

Legend:
[1] = Compound solubility in water; type: physicochemical
[2] = biological target: T1, glucocerebrosidase (Gcase) (Homo sapiens, UniProt P04062); assay: Glucocerebrosidase (Gcase) activation assay, 4-methylumbelliferyl-beta-D-glucopyranoside substrate, with saposin C; type: biochemical
T1 sequence (P04062 40-536): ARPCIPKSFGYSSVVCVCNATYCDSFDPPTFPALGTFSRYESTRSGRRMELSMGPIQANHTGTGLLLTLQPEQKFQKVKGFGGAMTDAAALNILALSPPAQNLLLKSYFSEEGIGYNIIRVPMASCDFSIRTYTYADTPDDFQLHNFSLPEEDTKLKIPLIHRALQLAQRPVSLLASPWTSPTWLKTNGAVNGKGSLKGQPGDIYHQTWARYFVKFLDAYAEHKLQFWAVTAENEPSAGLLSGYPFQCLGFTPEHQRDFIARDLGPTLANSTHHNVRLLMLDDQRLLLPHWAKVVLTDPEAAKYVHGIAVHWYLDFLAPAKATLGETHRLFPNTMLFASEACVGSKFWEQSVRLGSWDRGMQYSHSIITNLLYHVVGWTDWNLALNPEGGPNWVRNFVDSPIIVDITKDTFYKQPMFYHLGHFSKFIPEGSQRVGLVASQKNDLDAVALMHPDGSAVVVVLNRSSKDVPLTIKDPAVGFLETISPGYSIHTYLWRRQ
Protocol: The ability of exemplary compounds to activate glucocerebrosidase (Gcase) was measured.
A 484 μL aliquot of a 1.0 mg/mL solution of phosphatidylserine (PS) (Sigma P7769) in chloroform was evaporated under a stream of nitrogen for 1 hour. The lipid film was dissolved over 4 minutes of vigorous vortexing in 40 mL of 176 mM K2HPO4/50 mM citric acid (pH 4.7) containing 7.5 μL of triton X-100, resulting in a mixed micellar preparation with a composition of 0.32 mM triton and 0.37 mol % PS. 4-Methylumbelliferyl-beta-D-glucopyranoside (ACROS-337025000) was dissolved in the micellar solution to a final concentration of 2 mM for use as the reaction substrate.
Test compounds were diluted to the desired concentrations with dimethylsulfoxide (DMSO) from 10 mM stocks, and 0.41 μL of the DMSO compound mixture was added to 100 μL of micellar solution containing 10 nM GCase and 100 nM saposin C (Enzo ALX-201-262-C050). Pre-incubation was allowed to occur for 30 minutes at room temperature, after which the reaction was initiated by combining 25 μL of substrate solution with 25 μL of compound/GCase/saposin mixture. The reaction proceeded for 15 minutes at room temperature and was stopped by adding 150 μL of 1M glycine, pH 12.5. The endpoint of the reaction was monitored by measuring fluorescence intensity (excitation: 365 nm; emission: 440 nm) on a SpectraMax i3 instrument (Molecular Devices). Test compounds were screened at 1.0 and 0.1 μM final concentration, and subsequent 8-point dose response curves were obtained using 3-fold dilutions from a maximum final concentration of […].

[3] = test compound at 0.1 μM, read-out: Percent Gcase Activation, 0.1 μM Test Compound
[4] = test compound at 1.0 μM, read-out: Percent Gcase Activation, 1 μM Test Compound
[5] = 0.1 μM test compound, read-out: Percent Gcase Activation 0.1 μM Test Compound
[6] = 1 μM test compound, read-out: Percent Gcase Activation 1 μM Test Compound

Cc1cc(-c2cnsc2)nc2c(C(=O)N[C@@H](C3CC3)C(F)(F)F)ncn12 [IV-53]
solubility ([1]; in water): 13.2 µg/mL (≈ 34.6 µM)
activation at 0.1 µM [2, 3]: 10 to 20%
activation at 1 µM [2, 4]: > 60%

Cc1cc(-c2ccccc2F)nc2c(C(=O)NC(C)C3CC3)ncn12 (centres unmarked) [III-51]
solubility [1]: 22.7 µg/mL (≈ 67.1 µM)
activation at 0.1 µM [2, 5]: < 10%
activation at 1 µM [2, 6]: > 60%

Cc1cc(-c2nccs2)nc2c(C(=O)NC(C)(C)C3CC3)ncn12 [III-61]
solubility [1]: 5.5 µg/mL (≈ 16.1 µM)
activation at 0.1 µM [2, 5]: 10 to 20%
activation at 1 µM [2, 6]: > 60%

Cc1cc(-c2cccc(-c3ncncn3)c2)nc2c(C(=O)NC(C3CC3)C(F)(F)F)ncn12 (centres unmarked) [IV-79]
solubility ([1]; in water): 0.5 µg/mL (≈ 1.1 µM)
activation at 0.1 µM [2, 3]: > 20%
activation at 1 µM [2, 4]: > 60%

Cc1cc(-n2cccn2)nc2c(C(=O)NC(C)(C)C3CC3)ncn12 [III-70]
solubility [1]: 10.5 µg/mL (≈ 32.4 µM)
activation at 0.1 µM [2, 5]: < 10%
activation at 1 µM [2, 6]: 30 to 60%

Cc1cc(OC(C)C)nc2c(C(=O)NC(C3CC3)C(F)(F)F)ncn12 (centres unmarked) [III-177]
solubility [1]: 25.4 µg/mL (≈ 71.3 µM)
activation at 0.1 µM [2, 5]: 10 to 20%
activation at 1 µM [2, 6]: 30 to 60%

Cc1cc(-c2ccccn2)nc2c(C(=O)NC(c3ccc(F)cc3)C(F)(F)F)ncn12 (centres unmarked) [III-49]
solubility [1]: 6.7 µg/mL (≈ 15.6 µM)
activation at 0.1 µM [2, 5]: > 20%
activation at 1 µM [2, 6]: > 60%

Cc1cc(-c2cccnc2)nc2c(C(=O)N[C@H]3CC[C@H](OCC(C)C)CC3)ncn12 [III-66]
solubility [1]: 16 µg/mL (≈ 39.3 µM)
activation at 0.1 µM [2, 5]: < 10%
activation at 1 µM [2, 6]: 30 to 60%

COc1cccc(-c2cc(C)n3cnc(C(=O)NC(C4CC4)C(F)(F)F)c3n2)n1 (centres unmarked) [IV-91]
solubility ([1]; in water): 1.4 µg/mL (≈ 3.45 µM)

Cc1cn2cnc(C(=O)N[C@@H](C)C3CC3)c2nc1-c1ccc(F)cc1 [III-32]
activation at 0.1 µM [2, 5]: < 10%
activation at 1 µM [2, 6]: < 30%

COc1c(F)cccc1-c1cc(C)n2cnc(C(=O)NC(C3CC3)C(F)(F)F)c2n1 (centres unmarked) [IV-63]
solubility ([1]; in water): 3.1 µg/mL (≈ 7.34 µM)
activation at 0.1 µM [2, 3]: 10 to 20%
activation at 1 µM [2, 4]: > 60%

Cc1cc(-c2cccc(OC3CC3)n2)nc2c(C(=O)NC(C3CC3)C(F)(F)F)ncn12 (centres unmarked) [IV-15]
solubility ([1]; in water): 2.1 µg/mL (≈ 4.87 µM)
activation at 0.1 µM [2, 3]: 10 to 20%
activation at 1 µM [2, 4]: > 60%

Cc1cc(-c2cnc(Cl)c(F)c2)nc2c(C(=O)N[C@@H](C)C3CC3)ncn12 [III-107]
solubility [1]: 1.9 µg/mL (≈ 5.08 µM)
activation at 0.1 µM [2, 5]: < 10%
activation at 1 µM [2, 6]: 30 to 60%

Cc1cc(-c2ccc(F)cc2)nc2c(C(=O)N[C@@H](C)C3CC3)ncn12 [III-12]
solubility [1]: 9.3 µg/mL (≈ 27.5 µM)
activation at 0.1 µM [2, 5]: 10 to 20%
activation at 1 µM [2, 6]: > 60%

COc1c(F)cccc1-c1cc(C)n2cnc(C(=O)N[C@@H](C)C3CC3)c2n1 [IV-62]
solubility ([1]; in water): 16 µg/mL (≈ 43.4 µM)
activation at 0.1 µM [2, 3]: < 10%
activation at 1 µM [2, 4]: > 60%

Cc1cc(-c2ccccc2C#N)nc2c(C(=O)NC(C)(C)C)ncn12 [IV-109]
solubility ([1]; in water): 2.5 µg/mL (≈ 7.5 µM)
activation at 0.1 µM [2, 3]: < 10%
activation at 1 µM [2, 4]: 30 to 60%

Cc1cc(C)n2cnc(C(=O)N[C@H]3[C@@H]4CC[C@H]3C[C@@H](OC(C)(C)C)C4)c2n1 [IV-10]
solubility ([1]; in water): 1 µg/mL (≈ 2.7 µM)
activation at 0.1 µM [2, 3]: > 20%
activation at 1 µM [2, 4]: > 60%

Cc1cc(-c2cncnc2)nc2c(C(=O)NC(C)(C)C3CC3)ncn12 [III-57]
solubility [1]: 23.4 µg/mL (≈ 69.6 µM)
activation at 0.1 µM [2, 5]: < 10%
activation at 1 µM [2, 6]: < 30%

COc1cccc(-c2cc(C)n3cnc(C(=O)N[C@@H](C4CC4)C(F)(F)F)c3n2)n1 [IV-14]
solubility ([1]; in water): 3.2 µg/mL (≈ 7.89 µM)
activation at 0.1 µM [2, 3]: > 20%
activation at 1 µM [2, 4]: > 60%

CCCO[C@H]1CC[C@H](NC(=O)c2ncn3c(C)cc(-c4cccnc4)nc23)CC1 [III-65]
solubility [1]: 15.4 µg/mL (≈ 39.1 µM)
activation at 0.1 µM [2, 5]: < 10%
activation at 1 µM [2, 6]: < 30%

Cc1cc(-c2cccnc2)nc2c(C(=O)N[C@H]3CC[C@H](OC(C)(C)C)CC3)ncn12 [III-64]
solubility [1]: 32.2 µg/mL (≈ 79 µM)
activation at 0.1 µM [2, 5]: < 10%
activation at 1 µM [2, 6]: < 30%

Cc1nc2c(C(=O)N[C@@H](C)C3CC3)ncn2cc1-c1ccc(F)cc1 [III-39]
activation at 0.1 µM [2, 5]: < 10%
activation at 1 µM [2, 6]: < 30%

Cc1nscc1-c1cc(C)n2cnc(C(=O)N[C@H](C3CC3)C(F)(F)F)c2n1 [IV-96]
activation at 0.1 µM [2, 3]: 10 to 20%
activation at 1 µM [2, 4]: > 60%

Cc1cc(-c2cccc(OC(F)(F)F)n2)nc2c(C(=O)N[C@H](C)C3CC3)ncn12 [IV-12]
activation at 0.1 µM [2, 3]: < 10%
activation at 1 µM [2, 4]: 30 to 60%

Cc1nscc1-c1cc(C)n2cnc(C(=O)N[C@@H](C3CC3)C(F)(F)F)c2n1 [IV-97]
activation at 0.1 µM [2, 3]: 10 to 20%
activation at 1 µM [2, 4]: > 60%

Cc1cc(-c2nccs2)nc2c(C(=O)NC(C)(C)C)ncn12 [IV-54]
activation at 0.1 µM [2, 3]: < 10%
activation at 1 µM [2, 4]: < 30%

Cc1cc(-c2ccc(C#N)o2)nc2c(C(=O)N[C@H](C3CC3)C(F)(F)F)ncn12 [IV-34]
activation at 0.1 µM [2, 3]: > 20%
activation at 1 µM [2, 4]: > 60%

Cc1nc2c(C(=O)N[C@@H](C)C3CC3)ncn2c(C)c1-c1ccc(F)cc1 [III-40]
activation at 0.1 µM [2, 5]: < 10%
activation at 1 µM [2, 6]: < 30%

Cc1cc(-c2ccc(C#N)c(O)c2)nc2c(C(=O)NC(C3CC3)C(F)(F)F)ncn12 (centres unmarked) [III-159]
activation at 0.1 µM [2, 5]: < 10%
activation at 1 µM [2, 6]: < 30%

Cc1sncc1-c1cc(C)n2cnc(C(=O)N[C@H](C3CC3)C(F)(F)F)c2n1 [IV-98]
activation at 0.1 µM [2, 3]: > 20%
activation at 1 µM [2, 4]: > 60%

Cc1sncc1-c1cc(C)n2cnc(C(=O)N[C@@H](C3CC3)C(F)(F)F)c2n1 [IV-99]
activation at 0.1 µM [2, 3]: > 20%
activation at 1 µM [2, 4]: > 60%

Cc1cc(C#N)c(-c2cc(C)n3cnc(C(=O)N[C@@H](C4CC4)C(F)(F)F)c3n2)o1 [IV-94]
activation at 0.1 µM [2, 3]: > 20%
activation at 1 µM [2, 4]: > 60%

Cc1c(-c2ccc(F)cc2)cnc2c(C(=O)N[C@@H](C)C3CC3)ncn12 [III-38]
activation at 0.1 µM [2, 5]: < 10%
activation at 1 µM [2, 6]: < 30%

Cc1cc(-c2ccc(C#N)o2)nc2c(C(=O)N[C@@H](C3CC3)C(F)(F)F)ncn12 [IV-35]
activation at 0.1 µM [2, 3]: > 20%
activation at 1 µM [2, 4]: > 60%

Cc1cc(C#N)c(-c2cc(C)n3cnc(C(=O)N[C@H](C4CC4)C(F)(F)F)c3n2)o1 [IV-93]
activation at 0.1 µM [2, 3]: > 20%
activation at 1 µM [2, 4]: > 60%

Cc1cc(-c2cccnc2)nc2c(C(=O)NC(C)C(C)C3CC3)ncn12 (centres unmarked) [III-189]
activation at 0.1 µM [2, 5]: < 10%
activation at 1 µM [2, 6]: 30 to 60%

Cc1cc(Oc2ccc(F)cc2)nc2c(C(=O)NC(C)(C)C3CC3)ncn12 [III-77]
activation at 0.1 µM [2, 5]: < 10%
activation at 1 µM [2, 6]: 30 to 60%
